Assay results published in ChEMBL document CHEMBL3639144, “Glycoside derivatives and uses thereof” (2013).

Assays:
[1] = biological target: T1, Sodium/glucose cotransporter 1 (Homo sapiens, UniProt P13866); test: (§1) These cell lines transport 14C-labelled alpha-methyl-glucopyranoside (14C-AMG, Amersham) into the interior of the cell in sodium-dependent manner.The SGLT-2 assay is carried out as follows: CHO-hSGLT2 cells are cultivated in Ham's F12 Medium (BioWhittaker) with 10% foetal calf serum and 250 ug/mL zeocin (Invitrogen), and HEK293-hSGLT2 cells are cultivated in DMEM medium with 10% foetal calf serum and 250 ug/mL zeocin (Invitrogen). The cells are detached from the culture flasks by washing twice with PBS.; format: cell-based
T1 sequence (P13866 whole entry): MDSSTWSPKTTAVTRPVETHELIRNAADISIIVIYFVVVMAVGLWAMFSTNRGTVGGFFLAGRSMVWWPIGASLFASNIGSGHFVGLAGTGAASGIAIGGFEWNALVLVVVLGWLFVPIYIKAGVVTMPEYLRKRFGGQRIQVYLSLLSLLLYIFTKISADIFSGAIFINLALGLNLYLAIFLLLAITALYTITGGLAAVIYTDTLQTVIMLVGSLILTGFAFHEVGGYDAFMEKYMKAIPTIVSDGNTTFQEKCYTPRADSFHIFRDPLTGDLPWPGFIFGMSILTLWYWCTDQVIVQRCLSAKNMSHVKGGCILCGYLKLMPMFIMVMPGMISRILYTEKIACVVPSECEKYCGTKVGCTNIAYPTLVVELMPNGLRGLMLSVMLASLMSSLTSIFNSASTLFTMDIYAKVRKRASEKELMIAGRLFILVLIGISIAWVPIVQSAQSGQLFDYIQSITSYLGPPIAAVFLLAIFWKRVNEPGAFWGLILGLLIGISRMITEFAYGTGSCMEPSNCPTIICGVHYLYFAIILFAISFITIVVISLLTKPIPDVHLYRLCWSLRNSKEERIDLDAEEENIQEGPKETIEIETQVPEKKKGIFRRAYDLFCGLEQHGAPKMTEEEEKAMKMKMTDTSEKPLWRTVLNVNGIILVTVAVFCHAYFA

[2] = biological target: T2, Sodium/glucose cotransporter 2 (Homo sapiens, UniProt P31639); test: as §1; format: cell-based
T2 sequence (P31639 whole entry): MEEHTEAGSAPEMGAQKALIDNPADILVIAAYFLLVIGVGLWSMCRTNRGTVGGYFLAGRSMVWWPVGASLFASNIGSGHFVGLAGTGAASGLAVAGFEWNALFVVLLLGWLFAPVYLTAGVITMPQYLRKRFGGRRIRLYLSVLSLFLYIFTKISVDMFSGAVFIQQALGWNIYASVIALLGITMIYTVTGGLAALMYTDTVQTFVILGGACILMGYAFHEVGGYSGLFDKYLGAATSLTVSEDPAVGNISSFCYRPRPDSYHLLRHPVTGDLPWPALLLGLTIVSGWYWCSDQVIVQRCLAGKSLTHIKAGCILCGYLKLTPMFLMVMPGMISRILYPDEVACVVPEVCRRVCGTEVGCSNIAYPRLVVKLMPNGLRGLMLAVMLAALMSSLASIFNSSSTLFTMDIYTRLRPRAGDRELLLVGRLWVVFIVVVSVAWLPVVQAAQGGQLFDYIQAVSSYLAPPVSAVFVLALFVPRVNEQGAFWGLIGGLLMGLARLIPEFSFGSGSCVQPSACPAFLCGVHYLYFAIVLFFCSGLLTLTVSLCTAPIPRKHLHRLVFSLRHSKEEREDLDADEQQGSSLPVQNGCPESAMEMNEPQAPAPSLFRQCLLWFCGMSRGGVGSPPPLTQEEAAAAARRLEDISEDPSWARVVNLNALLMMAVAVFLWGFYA

SMILES	IC50 [1]	IC50 [2]
CCc1ccc([C@@H]2O[C@H](COC(=O)OC(C)(C)C)[C@@H](O)[C@H](O)[C@H]2O)cc1Cc1ccc2c(c1)OCCO2	188 nM	89 nM
CCc1ccc([C@@H]2O[C@H](COP(=O)(O)O)[C@@H](O)[C@H](O)[C@H]2O)cc1Cc1ccc2c(c1)OCCO2	89.3 nM	2.4 nM
